How the values were obtained:
Experiment in all cases: relative viability (nuclei count vs DMSO), 5 days (fraction); higher = more cells survive
[1] = compound: CC(C)C[C@H](NC(=O)[C@H](Cc1ccccc1)NC(=O)c1cnccn1)B(O)O [Bortezomib] + COc1cc2c(Oc3ccc(NC(=O)C4(C(=O)Nc5ccc(F)cc5)CC4)cc3F)ccnc2cc1OCCCN1CCOCC1 [Foretinib] (partner 0.25 µM)
Summary of the method: (§1)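 The day after seeding in 1536-well plates, lung cancer cell lines were treated by pin tool with a single drug, or with a fixed anchor-drug dose together with five library-drug doses (not always all listed) in √10 steps. After 5 days, a combined fix-and-stain solution (final 0.05% Triton X-100, 1% formaldehyde, 1 ug/ml Hoechst) was added. Nuclei counted on 4× images gave relative viability as treated counts over vehicle counts, reported as the median of duplicate plates.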

[2] = compound: CC1=CC(=NN1)NC2=CC(=NC(=N2)/C=C/C3=CC=CC=C3)N4CCN(CC4)C + COc1cc2c(Oc3ccc(NC(=O)C4(C(=O)Nc5ccc(F)cc5)CC4)cc3F)ccnc2cc1OCCCN1CCOCC1 [Foretinib] (partner 0.25 µM)
Summary of the method: as §1

[3] = compound: CC1=CC(=NN1)NC2=CC(=NC(=N2)/C=C/C3=CC=CC=C3)N4CCN(CC4)C + CC1(C)CCC(c2ccc(Cl)cc2)=C(CN2CCN(c3ccc(C(=O)NS(=O)(=O)c4ccc(N[C@H](CCN5CCOCC5)CSc5ccccc5)c(S(=O)(=O)C(F)(F)F)c4)cc3)CC2)C1 [Navitoclax] (partner 0.5 µM)
Summary of the method: as §1

[4] = compound: COC1=CC(c2cc3ccccc3[nH]2)=N/C1=C\c1[nH]c(C)cc1C [Obatoclax] + O=C(CCCCCCC(=O)Nc1ccccc1)NO [Vorinostat] (partner 1 µM)
Summary of the method: as §1

Cell Line | relative viability ([1]; first compound 0.0002 µM) | relative viability ([1]; first compound 0.000632 µM) | relative viability ([1]; first compound 0.002 µM) | relative viability ([1]; first compound 0.006325 µM) | relative viability ([1]; first compound 0.02 µM) | relative viability ([2]; first compound 0.08 µM) | relative viability ([2]; first compound 0.253 µM) | relative viability ([2]; first compound 0.8 µM) | relative viability ([2]; first compound 2.53 µM) | relative viability ([2]; first compound 8 µM) | relative viability ([3]; first compound 0.08 µM) | relative viability ([3]; first compound 0.253 µM) | relative viability ([3]; first compound 0.8 µM) | relative viability ([3]; first compound 2.53 µM) | relative viability ([3]; first compound 8 µM) | relative viability ([4]; first compound 0.01 µM) | relative viability ([4]; first compound 0.03162 µM) | relative viability ([4]; first compound 0.1 µM) | relative viability ([4]; first compound 0.3162 µM) | relative viability ([4]; first compound 1 µM)
HOP-62 | 0.972 | 1.07 | 0.863 | 0.134 | 0.0751 | 1.14 | 1.13 | 1.04 | 0.739 | 0.195 | 0.903 | 1.27 | 1.03 | 1 | 0.124 | 0.573 | 0.575 | 0.639 | 0.741 | 0.403
IA-LM | 1.26 | 1.1 | 1.16 | 0.0393 | 0.0142 | 1.07 | 1.05 | 0.906 | 0.601 | 0.103 | 0.733 | 0.76 | 1.12 | 0.669 | 0.148 | 0.993 | 0.89 | 1.05 | 0.905 | 1.11
LC-2-ad | 0.913 | 0.899 | 0.814 | 0.244 | 0.203 | 0.875 | 0.942 | 0.753 | 0.413 | 0.204 | 0.432 | 0.332 | 0.224 | 0.0861 | 0.0584 | 0.677 | 0.669 | 0.647 | 0.658 | 0.445
LCLC-97TM1 | 0.906 | 0.929 | 0.721 | 0.242 | 0.151 | 0.911 | 0.954 | 0.961 | 0.296 | 0.132 | 0.492 | 0.781 | 0.294 | 0.201 | 0.106 | 0.633 | 0.792 | 0.77 | 0.589 | 0.494

Source: the supplement of paper PMC10307832
